# In PubChem BioAssay AID1918953 (Molecular Pharmacology Branch, DTP, NCI, 2023):
# Test system: MDA-MB-231 complex spheroid viability
# Assay: Anticancer human tumor MDA-MB-231/ATCC cell line growth inhibition;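 note: drug exposure lasted 7 days starting on day 3 of spheroid growth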
# Settings: for IC50: curve of first compound; for viability, T/C: stronger effect = lower value
# How it was run: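 Drug combinations with the LSD1 inhibitor iadademstat tested on tumor cells co-cultured as spheroids with endothelial cells and mesenchymal stem cells. Concentrations descended in half-log increments from clinical Cmax or 10 microM.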
# [1] = second compound 0.1 µM, first compound 0.0316 µM
# [2] = second compound 0.1 µM, first compound 0.1 µM
# [3] = second compound 0.1 µM, first compound 0.316 µM
# [4] = second compound 0.1 µM, first compound 1 µM
# [5] = second compound 0.316 µM, first compound 0.0316 µM
# [6] = second compound 0.316 µM, first compound 0.1 µM
# [7] = second compound 0.316 µM, first compound 0.316 µM
# [8] = second compound 0.316 µM, first compound 1 µM
# [9] = second compound 1 µM, first compound 0.0316 µM
# [10] = second compound 1 µM, first compound 0.1 µM
# [11] = second compound 1 µM, first compound 0.316 µM
# [12] = second compound 1 µM, first compound 1 µM
# [13] = second compound 3.16 µM, first compound 0.0316 µM
# [14] = second compound 3.16 µM, first compound 0.1 µM
# [15] = second compound 3.16 µM, first compound 0.316 µM
# [16] = second compound 3.16 µM, first compound 1 µM
# [17] = second compound 10 µM, first compound 0.0316 µM
# [18] = second compound 10 µM, first compound 0.1 µM
# [19] = second compound 10 µM, first compound 0.316 µM
# [20] = second compound 10 µM, first compound 1 µM
# [21] = second compound 0.1 µM, first compound 0.00316 µM
# [22] = second compound 0.1 µM, first compound 0.01 µM
# [23] = second compound 0.316 µM, first compound 0.00316 µM
# [24] = second compound 0.316 µM, first compound 0.01 µM
# [25] = second compound 1 µM, first compound 0.00316 µM
# [26] = second compound 1 µM, first compound 0.01 µM
# [27] = second compound 3.16 µM, first compound 0.00316 µM
# [28] = second compound 3.16 µM, first compound 0.01 µM
# [29] = second compound 10 µM, first compound 0.00316 µM
# [30] = second compound 10 µM, first compound 0.01 µM
structure (smiles),measurement,setting,value
CC(C)c1c(-c2ccccc2)nc2c(C#N)c[nH]n2c1=O + NC1CC1c1ccc(-c2cccc(O)c2)cc1,IC50,second compound 0.1 µM,> 10000 nM
same,IC50,second compound 0.316 µM,> 10000 nM
same,IC50,second compound 1 µM,> 10000 nM
same,IC50,second compound 3.16 µM,> 10000 nM
same,IC50,second compound 10 µM,< 31.6 nM
same,"viability, T/C",[1],82.9%
same,"viability, T/C",[2],84.7%
same,"viability, T/C",[3],82%
same,"viability, T/C",[4],85.4%
same,"viability, T/C","second compound 0.1 µM, first compound 3.16 µM",83%
same,"viability, T/C","second compound 0.1 µM, first compound 10 µM",82.4%
same,"viability, T/C",[5],71%
same,"viability, T/C",[6],69.8%
same,"viability, T/C",[7],70.4%
same,"viability, T/C",[8],63.1%
same,"viability, T/C","second compound 0.316 µM, first compound 3.16 µM",76.2%
same,"viability, T/C","second compound 0.316 µM, first compound 10 µM",62%
same,"viability, T/C",[9],69.4%
same,"viability, T/C",[10],69.5%
same,"viability, T/C",[11],70.7%
same,"viability, T/C",[12],63.6%
same,"viability, T/C","second compound 1 µM, first compound 3.16 µM",58.3%
same,"viability, T/C","second compound 1 µM, first compound 10 µM",52.9%
same,"viability, T/C",[13],68.5%
same,"viability, T/C",[14],65.1%
same,"viability, T/C",[15],71%
same,"viability, T/C",[16],68%
same,"viability, T/C","second compound 3.16 µM, first compound 3.16 µM",62.7%
same,"viability, T/C","second compound 3.16 µM, first compound 10 µM",56.5%
same,"viability, T/C",[17],44.3%
same,"viability, T/C",[18],42.9%
same,"viability, T/C",[19],50.8%
same,"viability, T/C",[20],51.5%
same,"viability, T/C","second compound 10 µM, first compound 3.16 µM",44.2%
same,"viability, T/C","second compound 10 µM, first compound 10 µM",45.2%
CC(C)CC(NC(=O)CNC(=O)c1cc(Cl)ccc1Cl)B1OC(=O)CC(CC(=O)O)(C(=O)O)O1 (stereo not given) + NC1CCC(NC2CC2c2ccccc2)CC1,IC50,second compound 0.1 µM,7.26 nM
same,IC50,second compound 0.316 µM,7.08 nM
same,IC50,second compound 1 µM,7.23 nM
same,IC50,second compound 3.16 µM,5.75 nM
same,IC50,second compound 10 µM,3.98 nM
same,"viability, T/C","second compound 0.1 µM, first compound 0.000316 µM",105%
same,"viability, T/C","second compound 0.1 µM, first compound 0.001 µM",110%
same,"viability, T/C",[21],85%
same,"viability, T/C",[22],36.5%
same,"viability, T/C",[1],5.81%
same,"viability, T/C",[2],0.78%
same,"viability, T/C","second compound 0.316 µM, first compound 0.000316 µM",98.9%
same,"viability, T/C","second compound 0.316 µM, first compound 0.001 µM",107%
same,"viability, T/C",[23],81.8%
same,"viability, T/C",[24],36.4%
same,"viability, T/C",[5],5.22%
same,"viability, T/C",[6],0.88%
same,"viability, T/C","second compound 1 µM, first compound 0.000316 µM",102%
same,"viability, T/C","second compound 1 µM, first compound 0.001 µM",107%
same,"viability, T/C",[25],85.8%
same,"viability, T/C",[26],36%
same,"viability, T/C",[9],4.74%
same,"viability, T/C",[10],0.52%
same,"viability, T/C","second compound 3.16 µM, first compound 0.000316 µM",83.8%
same,"viability, T/C","second compound 3.16 µM, first compound 0.001 µM",86.7%
same,"viability, T/C",[27],69.4%
same,"viability, T/C",[28],31.7%
same,"viability, T/C",[13],3.87%
same,"viability, T/C",[14],0.63%
same,"viability, T/C","second compound 10 µM, first compound 0.000316 µM",57.6%
same,"viability, T/C","second compound 10 µM, first compound 0.001 µM",61.2%
same,"viability, T/C",[29],55.8%
same,"viability, T/C",[30],25.7%
same,"viability, T/C",[17],2.19%
same,"viability, T/C",[18],0.65%
COc1cc(Nc2ncc3c(n2)-c2ccc(Cl)cc2C(c2c(F)cccc2OC)=NC3)ccc1C(=O)O + NC1CC1c1ccc(-c2cccc(O)c2)cc1,IC50,second compound 0.1 µM,< 3.16 nM
same,IC50,second compound 0.316 µM,< 3.16 nM
same,IC50,second compound 1 µM,< 3.16 nM
same,IC50,second compound 3.16 µM,< 3.16 nM
same,IC50,second compound 10 µM,< 3.16 nM
same,"viability, T/C",[21],43.8%
same,"viability, T/C",[22],48.9%
same,"viability, T/C",[1],43%
same,"viability, T/C",[2],40.8%
same,"viability, T/C",[3],32.4%
same,"viability, T/C",[4],21.9%
same,"viability, T/C",[23],40.7%
same,"viability, T/C",[24],40%
same,"viability, T/C",[5],38.5%
same,"viability, T/C",[6],34.7%
same,"viability, T/C",[7],27.3%
same,"viability, T/C",[8],21.4%
same,"viability, T/C",[25],37.5%
same,"viability, T/C",[26],39.9%
same,"viability, T/C",[9],38.3%
same,"viability, T/C",[10],38%
same,"viability, T/C",[11],25.1%
same,"viability, T/C",[12],18.6%
same,"viability, T/C",[27],41.4%
same,"viability, T/C",[28],41.4%
same,"viability, T/C",[13],41.1%
same,"viability, T/C",[14],35%
same,"viability, T/C",[15],28.1%
same,"viability, T/C",[16],18.9%
same,"viability, T/C",[29],30.7%
same,"viability, T/C",[30],33%
same,"viability, T/C",[17],31.3%
same,"viability, T/C",[18],31.1%
same,"viability, T/C",[19],22.4%
same,"viability, T/C",[20],15.7%
